ChEMBL document CHEMBL1255357, “Enrichment of fluoroquinolone-resistant Staphylococcus aureus: oscillating ciprofloxacin concentrations simulated at the upper and lower portions of the mutant selection window” (Antimicrob Agents Chemother, 2008)
The source made the active and inactive calls. The rule behind the calls is not given here.

Assays:
Staphylococcus aureus [1] = experiment: Antimicrobial activity against methicillin-resistant Staphylococcus aureus ATCC 43300 assessed as mutant prevention concentration after 48 hrs; format: functional, organism-based
Staphylococcus aureus [2] = experiment: Antimicrobial activity against methicillin-resistant Staphylococcus aureus ATCC 6538 assessed as mutant prevention concentration after 48 hrs; format: functional, organism-based

O=C(O)c1cn(C2CC2)c2cc(N3CCNCC3)c(F)cc2c1=O
Activity (Staphylococcus aureus [1]): Active
Activity (Staphylococcus aureus [2]): Active
